Results as given in patent US20260209135A1, “METHOD OF FORTIFYING FERTILIZER WITH LIPO-CHITOOLIGOSACCHARIDE (LCO)” (priority 2022, published 2026).

How the values were obtained:
[1] = at low pH; cited from earlier work
[2] = system: finger millet (Eleusine coracana) seedlings; test: Ragi seedlings treated with LCO: root hairs and root length; type: in vivo
From the text: FIG. 27 represents a graph showing number of root hairs in seedlings of ragi @ 3 DAS: untreated control (UTC) and treated with LCO.
(§1) FIG. 29 represents a graph showing root length measured @ 4 DAS in ragi and rice seedlings: untreated control and treated with LCO.

Capsicum = Capsicum net house trial, WSF fortified with LCO (Example 2); type: in vivo, Capsicum (Diana variety); conditions: fortification of WSF with LCO vs WSF only
[3] = system: Beans (Phaseolus vulgaris L); test: Beans seedlings treated with LCO: root length; type: in vivo; conditions: vs control seedlings without LCO, FIG. 28
From the text: (§2) FIG. 28 represents a graph showing root length measured @ 10 DAS in beans, horse gram and green gram seedlings: untreated control and treated with LCO.

Cabbage [4] = test: Cabbage field study, bulk granular fertilizer with LCO (Example 7); type: in vivo; conditions: bulk fertilizer combined with LCO compared to fertilizer alone
Protocol: The field experiment was conducted at an agricultural farm in Bangalore in Rabi season of 2020. The study was conducted in randomized complete block design with 7 treatments and 7 replications per treatment with each plot measuring approximately 9 m^2 in area (Table-12 & 13). Cabbage seedlings of a popular variety was used for the trial. Different grades of bulk fertilizers were available in market generally sold in 50 kg packages. The N:P:K-19:19:19 grade bulk fertilizer was used for the current study. Treatments of LCO fortified bulk fertilizer with 3 doses of LCO 11.25 ml, 22.5 ml, and 33.75 ml were formulated per 50 kg bag of fertilizer. The application dose was calculated based on the crop and standard fertilizer recommendation to the select crop. About 50% of calculated quantity of fertilizers were applied to the crop on a per plot basis as basal application at the time of planting and rest of the quantity of each treatment was applied at 40 days after transplanting (DAT). [table] […] The yield per plot was measured by weighing all the heads harvested from each plot. The vertical and horizontal diameter of the head was measured using a measuring tape and the volume of each cabbage head was calculated by the following formula V=4/3·π·(a)^2·b • Where, • V=Volume of the head • a=Horizontal diameter of the head • b=Vertical diameter of the head

[5] = system: Green gram (Vigna radiata); test: Green gram seedlings treated with LCO: root length; type: in vivo; conditions: vs control seedlings without LCO, FIG. 28
From the text: as §2

Corn [6] = test: Corn microplot trial, granular fertilizer fortified with LCO (Example 5); type: in vivo, Maize; conditions: LCO at 22.5 ml per bag of GF, over control
Protocol: Maize seeds were sown directly to microplot on 29 Oct. 2020 and the experiment was completed by third week of January 2021. Experiment was conducted in 3*3 microplots in 7 replications for treatment and 6 replications for control, microplots were distributed in a completed random block experimental design. Treatment was imposed by fertigation at 2 times point with doses divided in to 50% each first at time of transplanting and second one at 40 days after transplanting (Table 11). Plants were grown by following the standard package of practices developed by the university of Agricultural Science Bangalore, for further details information have a look at the crop calendar (Table 11). [table] Treatment was in a complete random block design, with 7 replications per treatment and 6 replication per control. Following parameter/observation WAS recorded: • 1. Plant number per plot • 2. Plant height • 3. Chlorophyll content • 4. Stem girth • 5. Cob number • 6. Cob dry weight • 7. Yield/grain weight per plot or plant Data were analysed with JMP software by comparing means using all pairs Tukey HSD. Error bars shown in graphs are SD. Bar graphs represent the mean. Different alphabet indicates significant difference between the treatment. […] FIG. 8: Plant height were measured at three different time point viz 33, 53 and 138 days after sowing, data represented here are means and error bar represent standard deviation. NS denotes no significant difference between the treatment.

[7] = system: Horse gram (Macrotyloma uniflorum); test: Horse gram seedlings treated with LCO: root length; type: in vivo; conditions: vs control seedlings without LCO, FIG. 28
From the text: as §2

Rice (Oryza sativa) = test: Rice seedlings treated with LCO: root length; type: in vivo; conditions: vs control seedlings without LCO, FIG. 29
From the text: as §1

Cabbage [8] = test: Cabbage microplot trial, WSF fortified with LCO (Example 1); type: in vivo, Cabbage (Enza zaden variety); conditions: average, vs control (only WSF)
Protocol: Cabbage seedling (Enza zaden variety) were transplanted on 16 Oct. 2020 and the experiment was completed by end of December 2020. Experiment was conducted in 3*3 microplots in 9 replications for treatment and control, microplots were distributed in a completed random block experimental design. Treatment was imposed by fertigation at 3 times point with doses divided in to 22, 39 and 39% respectively (Table 6). Plants were grown by following the standard package of practices developed by the university of Agricultural Science Bangalore. [table] Treatment was in a complete random block design, with 9 replications per treatment. Following parameter/observation was recorded: • 1. Plant number per plot • 2. Fruit weight per plot • 3. Fruit weight per plant • 4. Vertical circumference • 5. Radial circumference Data were analysed with JMP software by comparing means using all pairs Tukey HSD. Error bars shown in graphs are SD. Bar graphs represent the mean. Different alphabet indicates significant difference between the treatment.

Cabbage [9] = test: Cabbage microplot trial, granular fertilizer fortified with LCO (Example 4); type: in vivo, Cabbage (Enza zaden variety)
Corn [10] = test: Corn pot study, LCO and urease inhibitor fortified urea and WSF (Example 6); type: in vivo; conditions: urea study
Protocol: NBPT (N-(n-butyl) thiophosphoric triamide) was suspended in propylene glycol (PG) and dimethyl sulphoxide (DMSO) in the ratio of 20:50:30. In the current experiment two different doses of NBPT was fortified to the fertilizers, low dose consisting of 400 ppm and high dose 800 ppm was fortified per Kg of fertilizer.
The fortifying mixture consists of 0.7 ml of LCO (1.90e-5) and 2 ml of NBPT (400 ppm) was fortified to 1 Kg of fertilizer. Whereas another fortifying mixture consists of 0.7 ml of LCO (1.90e-5) and 4 ml of NBPT (800 ppm) was fortified to 1 Kg of fertilizer. After fortification samples were taken for conducting pot trails.
A pot study was conducted for evaluating LCO and Urease inhibitor fortified Urea and WSF on an experimental crop. Corn was selected as a subject crop for the pot study. The experiment consists of 13 treatments as listed below. The pot study is done in pots of 2 Kg soil capacity. The experiment duration is 20 days.
• 1. Untreated Control • 2. WSF • 3. WSF+LCO • 4. WSF+LCO+UI (Low-400 ppm) • 5. […]
From the onset of the experiment plant height and chlorophyll was measured at every 10th, 15th, and 20th day after sowing. Plant height and dry biomass of leaves and root were measured manually using scales, whereas chlorophyll was measured using chlorophyll meter. Leaf area was calculated based on the dry weight method, by developing a dry-weight weight versus leaf area curve for corn leaf samples of known area.
Available nitrogen from the soil was estimated from the soil samples using wet aggregate analysis method of estimation. […] The available nitrogen is expressed as kg/ha.
Total nitrogen as percent was determined from the dried plant samples using Kjeldahl method of estimation. The total nitrogen in plant is expressed as percentage. Nitrogen uptake was calculated by multiplying the shoot biomass with the nutrient concentration. Nitrogen use efficiency (NUE) is determined as the percent of the applied nitrogen that was taken up by the plants.
From the onset of the experiment plant height and chlorophyll was measured every 5 days interval starting from 10th DAS. […]

[11] = system: White French Beans seedlings; test: Seedling bioassay in tubes, WSF (19:19:19) fortified with LCO (Example 3); type: in vivo; conditions: 10 days
Protocol: [table] Locally available beans variety were used for the study. Experiment was conducted in 50 ml falcon tube filled with soilrite which acts as growing substrate. Treatment solution as given in the table were prepared in demineralised water and 10 ml of respective solution were applied to each tube after sowing (2.5 cm depth). Fortified, unfortified WSF and LCO were tested at 2 doses along with absolute control. Subsequently, the seedlings were maintained under […] (200 […], 12 hrs light and dark), ambient temperature of 25 degree Celsius. The tubes were incubated for 10 days and irrigated with water as and when required. After 10 days, the experiment was terminated and the plants were phenotyped for recording the traits vz Hypocotyl length, epicotyl length, shoot length and root length.

Corn [12] = test: Corn field study, bulk granular fertilizer with LCO (Example 8); type: in vivo; conditions: bulk fertilizer combined with LCO compared to fertilizer alone
Protocol: The field experiment was conducted at an agricultural farm in Bangalore in Rabi season of 2020. The study was conducted as randomized complete block design with 7 treatments with 9 replications and each plot measured about 9 m^2 in area. Hybrid corn seeds of a popular brand was used for the trial. Different grades of Bulk fertilizers are available in market generally sold in 50 kg packages. The N:P:K-19:19:19 grade bulk fertilizer was used for the current study. Bulk fertilizer was combined with 3 doses of LCO at the rate of 11.25 ml, 22.5 ml, and 33.75 ml per 50 kg bag of fertilizer. The application dose was calculated based on the crop and standard fertilizer recommendation to the select crop. About 50% quantity of the treatments were applied to the crop as basal application at the time of planting and rest of the quantity for each treatment was applied at 40 DAS. [table] [table] The trial was harvested in January 2021, when the cobs were fully matured. The yield parameters such as number of cobs per plot and cob yield per plot were recorded. The number of cobs per plot was normalized based on plant density per plot. The cobs of each plot were threshed separately and grain weight per plot was recorded and interpreted as Kg per plot normalized to number of plants per plot.

SMILES: CCCCNP(N)(N)=S [NBPT, N-(n-butyl) thiophosphoric triamide]
- time within which decayed [1]: ≤ 24 h

SMILES: CCCCCC/C=C\CCCCCCCCCC(=O)N[C@H]1[C@H](O[C@H]2[C@H](O)[C@@H](NC(C)=O)[C@H](O[C@H]3[C@@H](O)[C@@H](NC(C)=O)[C@H](O[C@H]4[C@H](O)[C@@H](NC(C)=O)[C@H](O[C@H]([C@H](O)[C@H](C=O)NC(C)=O)[C@H](O)CO)O[C@@H]4CO)O[C@@H]3O)O[C@@H]2CO)O[C@H](CO)[C@@H](O)[C@@H]1O [LCO, Lipo-chitooligosaccharide]
- number of root hairs, result in words ([2]; 3 days after treatment, vs untreated control, FIG. 27): increase root hairs
- root length, result in words ([2]; vs control seedlings without LCO, FIG. 29): increases the length of roots
- capsicum yield, result in words (Capsicum): increase in yield, even though there is no statistically significant difference
- root length, result in words [3]: increases the length of roots
- average volume of cabbage heads, result in words (Cabbage [4]): enhanced average volume of cabbage heads
- root length, result in words [5]: increases the length of roots
- increase in cob weight per plot (Corn [6]): ≤ 10
- increase in grain weight per plot (Corn [6]): ≤ 9
- increase in number of cobs per plant (Corn [6]): ≤ 18%
- root length, result in words [7]: increases the length of roots
- root length, result in words (Rice (Oryza sativa)): increases the length of roots
- increase in yield (Cabbage [8]; cabbage yield (kg/plot), LCO with or without proxel): 7%
- increase in circumference (Cabbage [8]; cabbage, WSF 19:19:19 with LCO with or without proxel): 2%
- cabbage circumference, result in words (Cabbage [9]; GF fortified with LCO vs control (only GF)): marginal increase in circumference of cabbage heads
- increase in circumference (Cabbage [9]; cabbage, GF 19:19:19 with LCO with or without proxel, average, vs control (only GF)): 0.4%
- total nitrogen (leaf nitrogen content), result in words (Corn [10]; 20 days old corn seedlings, Kjeldahl, FIG. 22): much higher than urea+UI at 400 ppm and equal to urea+UI at 800 ppm
- leaf dry weight, result in words (Corn [10]; corn seedlings, 20 DAS, FIG. 18): better than WSF alone
- leaf area, result in words (Corn [10]; corn seedlings, 20 DAS, FIG. 20): better than WSF alone
- Epicotyl length ([11]; concentration 8.75E−12 %): 1.75 cm
- Hypocotyl length ([11]; concentration 8.75E−12 %): 9 cm
- Root length ([11]; concentration 8.75E−12 %): 12.12 cm
- Shoot length (hypocotyl + Epicotyl length) ([11]; concentration 8.75E−12 %): 10.77 cm
- Epicotyl length ([11]; concentration 8.75E−14 %): 1.87 cm
- Hypocotyl length ([11]; concentration 8.75E−14 %): 8.3 cm
- Root length ([11]; concentration 8.75E−14 %): 13.41 cm
- Shoot length (hypocotyl + Epicotyl length) ([11]; concentration 8.75E−14 %): 10.26 cm
- average number of cobs per plot, result in words (Corn [12]): enhanced
- grain yield per plot, result in words (Corn [12]): enhanced
